From patent US20100092402A1, “TREATMENT OF RESPIRATORY DISEASE” (Mucokinetica Ltd., priority 2007, published 2010)
Like-named read-outs stand apart in the source and are kept apart here.

Target: T1, epithelial amiloride-sensitive sodium channel (ENaC) (Homo sapiens, UniProt P37088+P51168+P51170)
T1 sequence (P37088 1-669): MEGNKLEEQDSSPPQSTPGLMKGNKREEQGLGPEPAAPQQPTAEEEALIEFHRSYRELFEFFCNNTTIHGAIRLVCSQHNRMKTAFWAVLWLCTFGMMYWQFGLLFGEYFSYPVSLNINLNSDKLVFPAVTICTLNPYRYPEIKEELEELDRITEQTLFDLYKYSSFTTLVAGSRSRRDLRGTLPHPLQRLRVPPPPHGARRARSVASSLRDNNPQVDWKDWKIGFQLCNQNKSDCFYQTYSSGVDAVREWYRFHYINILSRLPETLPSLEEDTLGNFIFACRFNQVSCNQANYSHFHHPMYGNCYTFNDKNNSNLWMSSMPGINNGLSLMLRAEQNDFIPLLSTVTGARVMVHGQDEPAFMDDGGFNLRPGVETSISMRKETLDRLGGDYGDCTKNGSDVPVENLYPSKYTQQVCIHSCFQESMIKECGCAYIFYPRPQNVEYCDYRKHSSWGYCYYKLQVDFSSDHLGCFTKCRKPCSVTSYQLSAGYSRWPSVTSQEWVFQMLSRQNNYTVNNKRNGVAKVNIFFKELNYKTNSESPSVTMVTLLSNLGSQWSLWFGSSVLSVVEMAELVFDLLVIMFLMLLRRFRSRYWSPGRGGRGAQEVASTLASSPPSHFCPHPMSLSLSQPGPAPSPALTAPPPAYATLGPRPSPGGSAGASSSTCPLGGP
T1 sequence (P51168 1-640): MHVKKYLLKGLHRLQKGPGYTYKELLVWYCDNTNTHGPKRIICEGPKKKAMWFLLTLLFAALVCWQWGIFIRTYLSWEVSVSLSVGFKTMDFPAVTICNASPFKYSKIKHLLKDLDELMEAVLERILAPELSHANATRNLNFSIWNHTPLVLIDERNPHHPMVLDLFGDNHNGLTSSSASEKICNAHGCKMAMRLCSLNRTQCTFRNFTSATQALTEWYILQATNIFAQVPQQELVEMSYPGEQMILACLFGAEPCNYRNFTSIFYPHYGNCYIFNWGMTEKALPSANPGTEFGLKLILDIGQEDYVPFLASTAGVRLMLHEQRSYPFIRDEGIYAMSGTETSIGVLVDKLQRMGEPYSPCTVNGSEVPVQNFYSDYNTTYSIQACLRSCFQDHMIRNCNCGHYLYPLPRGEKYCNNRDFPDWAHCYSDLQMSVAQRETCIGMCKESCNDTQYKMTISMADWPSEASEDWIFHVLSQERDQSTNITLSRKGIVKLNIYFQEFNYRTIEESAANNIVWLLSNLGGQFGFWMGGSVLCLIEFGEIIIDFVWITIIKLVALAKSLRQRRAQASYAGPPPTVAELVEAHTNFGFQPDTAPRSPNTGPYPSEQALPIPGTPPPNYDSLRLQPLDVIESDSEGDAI
T1 sequence (P51170 1-649): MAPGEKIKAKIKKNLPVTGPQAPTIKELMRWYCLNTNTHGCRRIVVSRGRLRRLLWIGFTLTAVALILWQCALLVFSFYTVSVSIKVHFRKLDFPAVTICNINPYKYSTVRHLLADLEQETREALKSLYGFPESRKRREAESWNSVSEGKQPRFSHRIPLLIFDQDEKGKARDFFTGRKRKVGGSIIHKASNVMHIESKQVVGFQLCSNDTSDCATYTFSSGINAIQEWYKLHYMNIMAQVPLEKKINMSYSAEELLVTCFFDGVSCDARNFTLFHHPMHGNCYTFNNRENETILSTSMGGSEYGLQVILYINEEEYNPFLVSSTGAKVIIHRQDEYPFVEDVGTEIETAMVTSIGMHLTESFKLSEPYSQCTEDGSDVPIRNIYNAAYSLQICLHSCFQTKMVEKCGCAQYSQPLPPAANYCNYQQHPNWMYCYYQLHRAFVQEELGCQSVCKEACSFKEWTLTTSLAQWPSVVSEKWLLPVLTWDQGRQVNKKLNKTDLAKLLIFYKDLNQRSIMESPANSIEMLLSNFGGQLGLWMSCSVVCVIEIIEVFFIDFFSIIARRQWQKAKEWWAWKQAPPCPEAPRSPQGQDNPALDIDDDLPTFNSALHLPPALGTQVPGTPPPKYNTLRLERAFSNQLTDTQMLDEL
Type: cell-based
Details: for average baseline Isc slope in initial recording period: control slope +0.04
Description: Human bronchial epithelial (HBE) cells were purchased from Cambrex Bioscience Ltd, UK., and were stored frozen in liquid nitrogen until required for use.
HBE cells were amplified by growing in secondary culture according to the suppliers' instructions. Cells were seeded at densities of between 3,000 to 4,000/cm^2 in plastic T-25 culture flasks in bronchial epithelial cell growth medium (BEGM) prepared from bronchial epithelial basal medium (BEBM, Cambrex, UK) supplemented with bovine pituitary extract, hydrocortisone, human epidermal growth factor, epinephrine, transferrin, insulin, retinoic acid, triiodothyronine, gentamicin, and amphotericin B. Cultures were maintained at 37° C. in 5% CO2 in a humidified incubator. Medium was changed every 1 to 3 days until cells were approximately 90% confluent. Cells were then passaged with trypsin EDTA according to the suppliers' instructions, and either used for further cell cultures, or cryopreserved in liquid nitrogen in BEGM containing 10% foetal bovine serum and 10% DMSO.
HBE cells were prepared for electrophysiology studies by growing as tertiary cultures on Snapwell (Corning) 0.4μ clear polyester membrane inserts 1.2 cm^2 coated with collagen IV (Sigma). Cells were seeded at approximately 10^5/cm^2 in 0.5 ml 1:1 DMEM (Cambrex, UK) BEGM containing bovine pituitary extract (50 μg/ml), hydrocortisone (0.5 μg/ml), human epidermal growth factor (0.5 ng/ml), epinephrine (0.5 μg/ml), transferrin (10 μg/ml), insulin (5 μg/ml), retinoic acid (50 nM), and gentamicin (50 μg/ml) (Danahay medium; Danahay et al. 2002). Snapwell inserts were mounted in 6-well plates with 3 ml Danahay medium in the wells, and grown at 37° C. in 5% CO2 in a humidified incubator. Medium was changed every 1 to 3 days. An apical air-liquid interface (ALI) was established as the cells achieved confluence (3 to 6 days) by removal of medium from the centre of the insert. Confluent differentiated bronchial epithelial cells were used for electrophysiology studies at between 15 and 29 days after establishing ALI.
Differentiated HBE cells grown to confluence at an air-liquid interface for 15 to 29 days were used to study substances for ability to achieve long duration down regulation of the epithelial amiloride-sensitive sodium channel (ENaC).
Step 1: Treatment with substance. For each group of cells treated with a substance, 30 μl of 100 times final concentration of substance was added to the 3 ml basolateral culture medium, mixed and 150 μl of the resultant basolateral fluid was transferred to the apical surface for 5 min. For non-treatment control groups of basolateral fluid with no added substance was transferred to the apical surface. After 5 min. equilibration the excess apical fluid was then transferred back to the basolateral side of the culture well.
Step 2: Variable period of incubation with the substance. Dependent on the individual experiment the cells were returned to the 37° C. incubator for periods of 0 min. to 120 min.
Step 3: Period of substance washout with fresh culture medium. For experiments to study the duration of a substance response the HBE cells on Snapwell inserts were washed with fresh culture medium (no added substance) at 37° C. and placed in fresh 6-well plates containing 3 ml fresh culture medium (no added substance) on the basolateral side. […] Step 3 was omitted in studies where the duration of the substance response was not investigated.
Step 4: Wash with Krebs-Ringer buffer and assembly in Ussing chambers. The Snapwell insert cultures of HBE cells were removed from the 6-well plates and washed with excess Krebs-Ringer buffer (120 mM-NaCl, 25 mM-NaHCO3, 3.3 mM-KH2PO4, 0.8 mM-K2HPO4, 1.2 mM-CaCl2, 1.2 mM-MgCl2, 10 mM-glucose) pH7.4 at 37° C. The inserts were then mounted in Ussing chambers (Snapwell diffusion chambers, Costar UK Ltd.). Each side of the chamber was filled with 5 ml Krebs-Ringer buffer and gassed continuously with 95% O2/5% CO2 at 37° C. […]

[1] = down regulation of ENaC activity

N=C(N)c1ccc2cc(OC(=O)c3ccc(N=C(N)N)cc3)ccc2c1 [6-amidino-2-napthyl 4-guanidinobenzoate]
average baseline Isc slope in initial recording period (1 μM 60 min, 3 h 00 min washout, FIG. 7D): +0.93 μAmp/min | average baseline Isc slope in initial recording period (1 μM 60 min, 4 h 30 min washout, FIG. 7E): +0.60 μAmp/min | amiloride ΔIsc compared to control (1 μM 60 min, then 4 h 30 min culture medium washout): not significantly different | slope of rising baseline short circuit current relative to untreated controls (3 h 00 min in fresh culture, first 15 minutes of recording, FIGS. 7D and 7A): over 20 times | time to half maximal inhibition (onset) [1]: ≤ 5 min | time to maximum down regulation (onset) [1]: ≤ 30 min
